The values below come from patent publication US9023789B2, “Amylin analogs and pharmaceutical compositions thereof” (Novo Nordisk A/S, priority 2012, dated 2015).

Numbered stars: 1 amine (or outer) side, 2 acyl side, 3 side chain; on linkers, the order of the positions; unused ones are H or OH. Bridge positions count the residues as written; N and C are the ends. Peptide text beside a SMILES is read from it. * marks the point of attachment. C20 diacid = O=C(O)CCCCCCCCCCCCCCCCCCC(=O)*; γGlu = O=C(O)[C@H](CCC(=O)[*:2])N[*:1]

The experiment deals with T1, human calcitonin receptor (Homo sapiens, UniProt P30988).
T1 construct: expressed in transfected cells
T1 sequence (P30988 25-474): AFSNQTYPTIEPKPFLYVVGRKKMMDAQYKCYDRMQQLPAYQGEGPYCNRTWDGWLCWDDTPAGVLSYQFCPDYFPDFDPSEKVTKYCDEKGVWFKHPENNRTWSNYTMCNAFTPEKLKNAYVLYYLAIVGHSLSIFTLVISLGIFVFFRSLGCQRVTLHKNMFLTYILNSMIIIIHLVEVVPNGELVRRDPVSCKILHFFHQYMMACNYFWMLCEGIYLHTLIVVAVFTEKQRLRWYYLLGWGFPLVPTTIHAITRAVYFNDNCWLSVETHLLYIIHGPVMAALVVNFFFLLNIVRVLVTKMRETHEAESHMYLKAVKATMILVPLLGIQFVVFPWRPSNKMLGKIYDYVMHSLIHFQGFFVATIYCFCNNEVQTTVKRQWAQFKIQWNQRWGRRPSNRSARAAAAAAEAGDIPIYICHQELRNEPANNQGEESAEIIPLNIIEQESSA
In words: ASSAY (VII) binding to the human calcitonin receptor (SPA, 125I-Calcitonin).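 Further: cell membranes (35 ng/µL) combined with SPA beads in 40 µL of pH 7.4 Hepes buffer, 384-well format, signal counted on a TopCounter instrument.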 The following applies: read-out: hCTR bind IC50.
Method: Membranes were prepared in the following way; the cells were rinsed with PBS and incubated with Versene for approximately 5 min before harvesting. The cells were flushed with PBS and the cell-suspension was centrifuged for 5 min at 1000 rpm. […] The resulting pellet was resuspended in buffer 2 and protein concentration was measured (BCA protein Assay, Pierce). The homogenate was kept cold during the whole procedure. The membranes were kept at −80° C. until use. Assay was performed in a 384 well Optiplate (PerkinElmer) in a total volume of 40 ul. Membranes were mixed with SPA beads. Final concentration of membranes 35 ng/μL final and Final concentration of SPA beads was 0.05 mg/well. Test-compounds were dissolved in DMSO and further diluted in assay buffer (50 mM Hepes, pH 7.4, 1 mM CaCl2, 5 mM MgCl2, 0.1% OA and 0.02% Tween20). […] Samples were analyzed on TopCounter™ (Packard).
With `CC[C@H](C)[C@H](NC(=O)[C@H](C)NC(=O)CNC(=O)[C@H](Cc1ccccc1)NC(=O)[C@H](CC(N)=O)NC(=O)[C@@H]1CCCN1C(=O)[C@H](CO)NC(=O)[C@H](CO)NC(=O)[C@H](Cc1c[nH]cn1)NC(=O)[C@H](CCCNC(=N)N)NC(=O)[C@H](CC(C)C)NC(=O)[C@H](Cc1ccccc1)NC(=O)[C@H](CCC(=O)O)NC(=O)[C@H](C)NC(=O)[C@H](CC(C)C)NC(=O)[C@H](CCCNC(=N)N)NC(=O)[C@H](CCC(N)=O)NC(=O)[C@@H](NC(=O)[C@H](C)NC(=O)[C@@H]1CSSC[C@H](NC(=O)[C@H](CCCCN)NC(=O)CC[C@H](NC(=O)CCCCCCCCCCCCCCCCCCC(=O)O)C(=O)O)C(=O)N[C@@H](CC(N)=O)C(=O)N[C@@H]([C@@H](C)O)C(=O)N[C@@H](C)C(=O)N[C@@H]([C@@H](C)O)C(=O)N1)[C@@H](C)O)C(=O)N1CCC[C@H]1C(=O)N[C@@H](CO)C(=O)N[C@@H](CO)C(=O)N[C@H](C(=O)N[C@@H](CC(N)=O)C(=O)N[C@H](C(=O)NCC(=O)N[C@@H](CO)C(=O)N[C@@H](CC(N)=O)C(=O)N[C@H](C(=O)N1CCC[C@H]1C(N)=O)[C@@H](C)O)C(C)C)[C@@H](C)O` [Example 8] ({C20 diacid-γGlu}-KCNTATCATQRLAEFLRHSSPNFGAIPSSTNVGSNTP-NH2; disulfide 2-7), the half-maximal inhibitory concentration (IC50) – broadly, the concentration that gives 50% inhibition – was found to be 0.038 nM. Next, `CC[C@H](C)[C@H](NC(=O)[C@H](C)NC(=O)CNC(=O)[C@H](Cc1ccccc1)NC(=O)[C@H](CC(N)=O)NC(=O)[C@@H]1CCCN1C(=O)[C@H](CO)NC(=O)[C@H](CO)NC(=O)[C@H](Cc1c[nH]cn1)NC(=O)[C@H](CCCNC(=N)N)NC(=O)[C@H](CC(C)C)NC(=O)[C@H](Cc1ccccc1)NC(=O)[C@H](CC(=O)O)NC(=O)[C@H](C)NC(=O)[C@H](CC(C)C)NC(=O)[C@H](CCCNC(=N)N)NC(=O)[C@H](CCC(N)=O)NC(=O)[C@@H](NC(=O)[C@H](C)NC(=O)[C@@H]1CSSC[C@H](NC(=O)[C@H](CCCCN)NC(=O)CC[C@H](NC(=O)CCCCCCCCCCCCCCCCCCC(=O)O)C(=O)O)C(=O)N[C@@H](CC(N)=O)C(=O)N[C@@H]([C@@H](C)O)C(=O)N[C@@H](C)C(=O)N[C@@H]([C@@H](C)O)C(=O)N1)[C@@H](C)O)C(=O)N1CCC[C@H]1C(=O)N[C@@H](CO)C(=O)N[C@@H](CO)C(=O)N[C@H](C(=O)N[C@@H](CC(N)=O)C(=O)N[C@H](C(=O)NCC(=O)N[C@@H](CO)C(=O)N[C@@H](CC(N)=O)C(=O)N[C@H](C(=O)N1CCC[C@H]1C(N)=O)[C@@H](C)O)C(C)C)[C@@H](C)O` [Example 10] ({C20 diacid-γGlu}-KCNTATCATQRLADFLRHSSPNFGAIPSSTNVGSNTP-NH2; disulfide 2-7 (inferred)): 0.099 nM. Take `CC[C@H](C)[C@H](NC(=O)[C@H](C)NC(=O)CNC(=O)[C@H](Cc1ccccc1)NC(=O)[C@H](CC(N)=O)NC(=O)[C@@H]1CCCN1C(=O)[C@H](CO)NC(=O)[C@H](CO)NC(=O)[C@H](Cc1c[nH]cn1)NC(=O)[C@H](CCCNC(=N)N)NC(=O)[C@H](CC(C)C)NC(=O)[C@H](Cc1ccccc1)NC(=O)[C@H](CCC(=O)O)NC(=O)[C@H](C)NC(=O)[C@H](CC(C)C)NC(=O)[C@H](CCCNC(=N)N)NC(=O)[C@H](CCC(N)=O)NC(=O)[C@@H](NC(=O)[C@H](C)NC(=O)[C@@H]1CSSC[C@H](NC(=O)[C@H](CCCCN)NC(=O)CC[C@H](NC(=O)CCCCCCCCCCCCCCCCCCC(=O)O)C(=O)O)C(=O)N[C@@H](CC(N)=O)C(=O)N[C@@H]([C@@H](C)O)C(=O)N[C@@H](C)C(=O)N[C@@H]([C@@H](C)O)C(=O)N1)[C@@H](C)O)C(=O)N1CCC[C@H]1C(=O)N[C@@H](CO)C(=O)N[C@@H](CO)C(=O)N[C@H](C(=O)N[C@@H](CC(N)=O)C(=O)N[C@H](C(=O)NCC(=O)N[C@@H](CO)C(=O)N[C@@H](CC(=O)O)C(=O)N[C@H](C(=O)N1CCC[C@H]1C(N)=O)[C@@H](C)O)C(C)C)[C@@H](C)O` [Example 11] ({C20 diacid-γGlu}-KCNTATCATQRLAEFLRHSSPNFGAIPSSTNVGSDTP-NH2; disulfide 2-7 (inferred)): the IC50 turned out to be 0.101 nM. Turning to `CC[C@H](C)[C@H](NC(=O)[C@H](C)NC(=O)CNC(=O)[C@H](Cc1ccccc1)NC(=O)[C@H](CC(N)=O)NC(=O)[C@@H]1CCCN1C(=O)[C@H](CO)NC(=O)[C@H](CO)NC(=O)[C@H](Cc1c[nH]cn1)NC(=O)[C@H](CCCNC(=N)N)NC(=O)[C@H](CC(C)C)NC(=O)[C@H](Cc1ccccc1)NC(=O)[C@H](CCC(=O)O)NC(=O)[C@H](C)NC(=O)[C@H](CC(C)C)NC(=O)[C@H](CCCNC(=N)N)NC(=O)[C@H](CCC(N)=O)NC(=O)[C@@H](NC(=O)[C@H](C)NC(=O)[C@@H]1CSSC[C@H](NC(=O)[C@H](CCCCN)NC(=O)CC[C@H](NC(=O)CC[C@H](NC(=O)CCCCCCCCCCCCCCCCCCC(=O)O)C(=O)O)C(=O)O)C(=O)N[C@@H](CC(N)=O)C(=O)N[C@@H]([C@@H](C)O)C(=O)N[C@@H](C)C(=O)N[C@@H]([C@@H](C)O)C(=O)N1)[C@@H](C)O)C(=O)N1CCC[C@H]1C(=O)N[C@@H](CO)C(=O)N[C@@H](CO)C(=O)N[C@H](C(=O)N[C@@H](CC(N)=O)C(=O)N[C@H](C(=O)NCC(=O)N[C@@H](CO)C(=O)N[C@@H](CC(N)=O)C(=O)N[C@H](C(=O)N[C@@H](Cc1ccc(O)cc1)C(N)=O)[C@@H](C)O)C(C)C)[C@@H](C)O` [Example 15] ({C20 diacid-γGlu-γGlu}-KCNTATCATQRLAEFLRHSSPNFGAIPSSTNVGSNTY-NH2; disulfide 2-7 (inferred)), the IC50 came to 15.5 nM. As to `CC[C@H](C)[C@H](NC(=O)[C@H](C)NC(=O)CNC(=O)[C@H](Cc1ccccc1)NC(=O)[C@H](CC(N)=O)NC(=O)[C@@H]1CCCN1C(=O)[C@H](CO)NC(=O)[C@H](CO)NC(=O)[C@H](Cc1c[nH]cn1)NC(=O)[C@H](CCCNC(=N)N)NC(=O)[C@H](CC(C)C)NC(=O)[C@H](Cc1ccccc1)NC(=O)[C@H](CCC(=O)O)NC(=O)[C@H](C)NC(=O)[C@H](CC(C)C)NC(=O)[C@H](CCCNC(=N)N)NC(=O)[C@H](CCC(N)=O)NC(=O)[C@@H](NC(=O)[C@H](C)NC(=O)[C@@H]1CSSC[C@H](NC(=O)[C@H](CCCCN)NC(=O)CC[C@H](NC(=O)CCCCCCCCCCCCCCCCCCC(=O)O)C(=O)O)C(=O)N[C@@H](CC(N)=O)C(=O)N[C@@H]([C@@H](C)O)C(=O)N[C@@H](C)C(=O)N[C@@H]([C@@H](C)O)C(=O)N1)[C@@H](C)O)C(=O)N1CCC[C@H]1C(=O)N[C@@H](CO)C(=O)N[C@@H](CO)C(=O)N[C@H](C(=O)N[C@@H](CC(N)=O)C(=O)N[C@H](C(=O)NCC(=O)N[C@@H](Cc1c[nH]cn1)C(=O)N[C@@H](CC(N)=O)C(=O)N[C@H](C(=O)N[C@@H](Cc1ccc(O)cc1)C(N)=O)[C@@H](C)O)C(C)C)[C@@H](C)O` [Example 17] ({C20 diacid-γGlu}-KCNTATCATQRLAEFLRHSSPNFGAIPSSTNVGHNTY-NH2; disulfide 2-7 (inferred)), the IC50 was 10.9 nM.
